The compounds below were run on Alternaria solani (assay: Alternaria test (tomato)/protective). Conditions: tomato plants, protective spray, application rate 750 g/ha, evaluation 3 days after inoculation; 100% = no infection.
Assay type: in vivo
Method: Alternaria Test (Tomato)/Protective
Solvent: 50 parts by weight of N,N-dimethylformamide
Emulsifier: 1.2 parts by weight of alkylaryl polyglycol ether
One day after the treatment, the plants are inoculated with a spore suspension of Alternaria solani. The plants then stand at 100% rel. atmospheric humidity and a temperature of 20° C.
Evaluation is carried out 3 days after the inoculation.

| SMILES | efficacy in % |
| --- | --- |
| CO/N=C(\C(=O)NCCc1ccc(OCC(C)C)c(OC)c1)c1ccc2c(c1)CCCC2 [Example 49] | 90% |
| CO/N=C(\C(=O)NCCc1ccc(OCC(C)C)c(OC)c1)c1ccc2c(c1)CCCC2 [Example 45] | 95% |
| CCCCOc1ccc(CCNC(=O)/C(=N\OC)c2ccc3c(c2)CCCC3)cc1OC [Example 48] | 95% |

What follows are compounds tested on Phytophthora infestans (assay: whole plant or invertebrate). Conditions: Phytophthora infestans, in Solanum lycopersicum, 72 h, read-out: efficacy in %, tomato plants, protective spray, application rate 50 g/ha, evaluation 3 days after inoculation; 100% = no infection.
Assay type: in vivo

| SMILES | pest or weed control at 50 g/ha |
| --- | --- |
| CCC(=O)COc1ccc(CCNC(=O)/C(=N\OC)c2ccc3c(c2)CCCC3)cc1OC [Example 60] | 89% |
| CO/N=C(\C(=O)NCCc1ccc(OC(C)C)c(OC)c1)c1ccc2c(c1)CCC2 [Example 115] | 94% |
| CO/N=C(\C(=O)NCCc1ccc(OC(C)C)c(OC)c1)c1ccc2c(c1)CCCC2 [Example 61] | ≥ 89% |
| C=CCOc1ccc(CCNC(=O)/C(=N\OC)c2ccc(Br)cc2)cc1OC [Example 115] | ≥ 89% |
| CCc1ccc(/C(=N/OC)C(=O)NCCc2ccc(OC(C)C)c(OC)c2)cc1 [Example 60] | ≥ 89% |
| CCC(C)Oc1ccc(CCNC(=O)/C(=N\OC)c2ccc(Cl)cc2)cc1OC (stereo not shown) [Example 62] | 89% |
| CCCOc1ccc(CCNC(=O)/C(=N\OC)c2ccc(Br)cc2)cc1OC [Example 61] | 94% |
| COCCOc1ccc(CCNC(=O)/C(=N/OC)c2ccc3c(c2)CCCC3)cc1OC [Example 107] | ≥ 89% |
| CO/N=C(\C(=O)NCCc1ccc(OC(C)C)c(OC)c1)c1ccc(C)cc1 [Example 107] | 95% |
| CCC(C)Oc1ccc(CCNC(=O)/C(=N\OC)c2ccc3c(c2)CCC3)cc1OC (stereo not shown) [Example 65] | 94% |
| C=CCOc1ccc(CCNC(=O)/C(=N\OC)c2ccc3c(c2)CCCC3)cc1OC [Example 57] | 99% |

Same assay, conditions: tomato plants, protective spray, application rate 50 g/ha, evaluation 3 days after inoculation; 100% = no infection

| SMILES | efficacy in % |
| --- | --- |
| COCCOc1ccc(CCNC(=O)/C(=N/OC)c2ccc3c(c2)CCCC3)cc1OC [Example 3] | 92% |
| CCc1ccc(/C(=N/OC)C(=O)NCCc2ccc(OC(C)C)c(OC)c2)cc1 [Example 113] | 94% |
| C=CCOc1ccc(CCNC(=O)/C(=N\OC)c2ccc(Br)cc2)cc1OC [Example 52] | 100% |

Same assay, conditions: tomato plants, protective spray, application rate 50 g/ha, evaluation 3 days after inoculation; 100% = no infection; listed as drawing 53

| SMILES | efficacy in % |
| --- | --- |
| CO/N=C(\C(=O)NCCc1ccc(OC(C)C)c(OC)c1)c1ccc2c(c1)CCCC2 [Example 63] | 94% |

Same assay, conditions: tomato plants, protective spray, application rate 50 g/ha, evaluation 3 days after inoculation; 100% = no infection; listed as drawing 58

| SMILES | efficacy in % |
| --- | --- |
| CO/N=C(\C(=O)NCCc1ccc(OC(C)C)c(OC)c1)c1ccc2c(c1)CCCC2 [Example 116] | 94% |

What follows are compounds tested on Plasmopara viticola (assay: Plasmopara test (grapevine)/protective). Conditions: 144 h, grapevine plants, protective spray, application rate 50 g/ha, evaluation 6 days after inoculation, 100% = no infection, read-out: efficacy in %.
Assay type: in vivo

| SMILES | pest or weed control at 50 g/ha |
| --- | --- |
| CCC(C)Oc1ccc(CCNC(=O)/C(=N\OC)c2ccc(Cl)cc2)cc1OC (stereo not shown) [Example 111] | 83% |
| CO/N=C(\C(=O)NCCc1ccc(OC(C)C)c(OC)c1)c1ccc2c(c1)CCC2 [Example 116] | 100% |
| CCC(=O)COc1ccc(CCNC(=O)/C(=N\OC)c2ccc3c(c2)CCCC3)cc1OC [Example 100] | 94% |
| COCCOc1ccc(CCNC(=O)/C(=N\OC)c2ccc(Cl)cc2)cc1OC [Example 60] | 96% |
| CCC(C)Oc1ccc(CCNC(=O)/C(=N\OC)c2ccc3c(c2)CCC3)cc1OC (stereo not shown) [Example 113] | 94% |

Same assay, conditions: 144 h, read-out: efficacy in %

| SMILES | pest or weed control at 50 g/ha |
| --- | --- |
| COCCOc1ccc(CCNC(=O)/C(=N\OC)c2ccc3c(c2)CCCC3)cc1OC [Example 65] | 93% |
| CCc1ccc(/C(=N/OC)C(=O)NCCc2ccc(OC(C)C)c(OC)c2)cc1 [Example 115] | 87% |
| C=CCOc1ccc(CCNC(=O)/C(=N\OC)c2ccc(Br)cc2)cc1OC [Example 63] | 99% |
| CCOc1cc(CCNC(=O)/C(=N\OC)c2ccc3c(c2)CCCC3)ccc1OC [Example 52] | 93% |

Same assay, conditions: 144 h, read-out: efficacy in %, grapevine plants, protective spray, application rate 50 g/ha, evaluation 6 days after inoculation, 100% = no infection

| SMILES | pest or weed control at 50 g/ha |
| --- | --- |
| CCOc1cc(CCNC(=O)/C(=N\OC)c2ccc3c(c2)CCCC3)ccc1OC [Example 100] | ≥ 83% |
| C=CCOc1ccc(CCNC(=O)/C(=N\OC)c2ccc(Br)cc2)cc1OC [Example 115] | ≥ 83% |
| CCc1ccc(/C(=N/OC)C(=O)NCCc2ccc(OC(C)C)c(OC)c2)cc1 [Example 60] | ≥ 83% |

— patent US6787670B1, “Glyoxyl acid amides, method for producing them and their use for controlling harmful organisms” (priority 1999, dated 2004)
